According to patent US20110117210A1, “Therapeutic treatment of human cancers using simple salts of zinc” (priority 2009, published 2011):
Read-outs that look alike come from different tables or passages of the source.

What was measured:
[1] = test system: human thyroid cancer cells; details: in vitro; cited from earlier work
[2] = test system: human colorectal cancer cells; details: in-vitro; cited from earlier work
metastatic melanoma = test: Clinical Case History 2: oral zinc salt treatment of a patient with metastatic melanoma; assay type: in vivo, human; details: oral 600 mg per day; for edema of right leg: July 2009 follow-up; for metastatic nodes in abdominal cavity, computer tomography and ultrasound: Oct. 20, 2009, then 900 mg per 24 hours July-October 2009
Description: In November 2008, the skin lesion became progressively larger and ulcerated. Then in December 2008, a skin tumor resection and dissection of an enlarged right inguinal lymph nodes were performed, yielding melanoma and inguinal lymph nodes with metastatic disease.
In January 2009, a course of conventional chemotherapy was prescribed and performed for the patient.
The patient was subsequently discharged from the hospital, with a poor prognosis (up to 2 months survival time).
The patient then began orally taking Zinc Picolinate at a 600 mg per day dosage. They orally ingested Zinc Picolinate daily, for 5 months time (from February, 2009 to May, 2009); and then Zinc Sulfate daily for 1 month (June, 2009) at a dose of 600 mg per day (300 mg twice a day with a meal) and for 4 months (from July, 2009 to October, 2009) at a dose of 900 mg per 24 hours (300 mg every 8 hours with a meal).

[3] = Monitoring of treated cancer patients for manifestations of zinc toxicity; assay type: in vivo, human; details: for toxic effects of zinc treatment: oral 600 mg per day 5 months, 900 mg per day 4 months
Description: Step 4: Periodically monitoring the status of the afflicted human subject during the therapeutic treatment regimen to confirm that no manifestations of zinc toxicity appear.
The levels of zinc can be monitored in plasma by conventional blood test. A medically normal concentration of zinc in human plasma is about 100 μg/100 mL.
The oncologist or physician should therefore periodically examine their patient in two ways during treatment:
First, the patient should be physically examined on a regular time basis for symptoms of zinc toxicity. As noted above, the risk and dangers of zinc toxicity in humans can occur in both acute and chronic forms; and symptoms of zinc toxicity can appear as nausea, vomiting, loss of appetite, abdominal cramps, diarrhea, and headaches.
Second, samples of the patient's blood should be taken routinely and regularly tested for zinc content using the blood chemistry assays and instrumentation conventionally known and commercially sold for this purpose. Although the values for the individual patient will likely vary considerably, the test results should approximate the medically normal concentration of zinc in human plasma of about 100 μg/100 mL.
In addition, although it is considered very unlikely that any manifestations of zinc toxicity will appear in an individual patient over the duration of therapeutic treatment with the present invention, it is deemed to be proper and necessary to verify that no serious manifestations of zinc toxicity appear regardless of how long the treatment regimen is continued. This is considered to be especially important in view of the likelihood of months and years of therapeutic treatment for some patients. Accordingly, the testing for undesirable zinc effects and toxicity should continue concurrently with and over the full duration of the therapeutic treatment for the patient.

[4] = test system: human prostate cancer cells; details: cited from earlier work
[5] = 80 mg per day of zinc for 6.3 years on average; cited from earlier work
[6] = cited from earlier work
[7] = target: GSK-3 (Glycogen Synthase Kinase-3) (Homo sapiens, UniProt P49841); details: cited from earlier work
HIPK2i cells = details: zinc added to culture medium concomitant with adriamycine (ADR); cited from earlier work
[8] = human, cited from earlier work
[9] = after ingesting 4 grams (570 milligrams of elemental zinc); cited from earlier work
[10] = test system: squamous cell carcinoma of the lung; test: Clinical Case History 1: oral zinc salt treatment of a lung cancer patient; assay type: in vivo, human
Description: A person was admitted to hospital with a cough, life threatening hemoptysis on Jan. 30, 2009. […] Because the patient denied either operation or chemotherapy, their survival prognosis was poor, up to 2 months survival time.
The patient then began taking Zinc Picolinate, orally, at a dose concentration of 200 mg a day. The patient orally ingested Zinc Picolinate daily, for 5 months (from February, 2009 to July, 2009) at a concentration of 200 mg per day, as a dose of 100 mg ingested twice a day with a meal. To date, the patient has not taken any other chemotherapeutic anticancer drug/agent, nor has undergone any other form of conventional cancer treatment.
The patient has been orally ingesting 200 mg of Zinc Picolinate per day for nearly six calendar months time. […] The patient has been orally taking 600 mg of Zinc Picolinate daily from August, 2009 to October, 2009.

[11] = test system: lung cancer (squamous cell carcinoma); test: Clinical Case History 3: oral zinc salt treatment of a lung cancer patient after radiotherapy; assay type: in vivo, human
Description: A person afflicted with lung cancer (tumor stenosis of right upper lobe bronchus, squamous cell carcinoma) had been conventionally treated with radiotherapy.
The patient then began to take Zinc Picolinate daily, for 1 month, at a dose of 600 mg per day (orally ingested as 300 mg of Zinc Picolinate taken twice a day with meals). […] The patient continued to take Zinc Picolinate orally from August, 2009 till October, 2009—but at a dose of 900 mg per day (orally ingested as 300 mg of Zinc Picolinate every 8 hours with meals).

[12] = water and aqueous based fluids, cited from earlier work
[13] = Case History 2, metastatic melanoma
[14] = Case History 2, metastatic melanoma, oral 600-900 mg per day

Sequence of GSK-3 (Glycogen Synthase Kinase-3) (P49841 whole entry): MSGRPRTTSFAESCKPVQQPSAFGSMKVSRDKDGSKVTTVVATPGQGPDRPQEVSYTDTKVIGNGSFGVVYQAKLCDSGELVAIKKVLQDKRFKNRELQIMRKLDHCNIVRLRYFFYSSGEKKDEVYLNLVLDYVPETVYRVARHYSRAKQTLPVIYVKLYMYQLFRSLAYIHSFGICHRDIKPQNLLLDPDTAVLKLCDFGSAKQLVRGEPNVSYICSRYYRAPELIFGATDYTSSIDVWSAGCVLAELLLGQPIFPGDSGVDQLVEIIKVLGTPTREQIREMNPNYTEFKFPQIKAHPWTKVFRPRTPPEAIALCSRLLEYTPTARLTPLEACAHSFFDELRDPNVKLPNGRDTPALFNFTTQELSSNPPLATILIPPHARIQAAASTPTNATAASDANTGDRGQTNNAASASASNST

For `[Cl-].[Cl-].[Zn+2]` [Zinc Chloride], the apoptosis [1] is given as “induces apoptosis”, the proliferation [1] is given as “inhibits proliferation” and the proliferation [2] is given as “inhibits proliferation”.
For `O=S(=O)([O-])[O-].[Zn+2]` [Zinc Sulfate], the “edema of right leg” value (metastatic melanoma) was “significantly decreased”, the “metastatic nodes in abdominal cavity, computer tomography and ultrasound” value (metastatic melanoma) was “complete regression” and the “toxic effects of zinc treatment” value [3, 13] was “no toxic effects”. For the same compound, the weight loss [3, 14] was “no weight loss”, the apoptosis [4] was “induce apoptosis” and the proliferation [4] was “inhibit proliferation”.
For `[O]=[Zn]` [zinc oxide], the “hospitalizations for genitourinary causes” value [5] is given as “significant increase”.
For `[Zn]` [zinc], the “level of zinc in diet known to cause chronic zinc toxicosis” value [6] is listed as > 2,000 ppm, the IC50 [7] is listed as 15 µM and the wtp53 transcription activity (HIPK2i cells) is listed as “restored wtp53 transcription activity”. The “intake with reported reductions in a copper-containing enzyme (marker of copper status)” value ([8]; up to 10 weeks) was “approximately 60 mg/day” and the “intake associated with chronic effects: low copper status, altered iron function, reduced immune function, reduced high-density lipoproteins” value [8] was 150-450 mg of zinc per day.
In the case of Zinc Gluconate, the “time to severe nausea and vomiting” value [9] is given as no more than 30 min.
With Zinc Picolinate the “signs of cancer progression” value ([10]; November 2009, nine months of treatment: 200 mg per day, then 600 mg daily August-October 2009) was “no signs of cancer progression”, the “clinical outcome of treatment (tumor growth, disease status)” value ([10]; oral 200 mg per day (100 mg twice a day), 5 months, no other cancer treatment) was “suppression of tumor growth and stabilization of the disease” and the “right pleural effusion, computer tomography” value ([10]; oral 200 mg per day about 5 months, Jul. 1, 2009, effusion present Jan. 14, 2009) was “no right pleural infusion”. For the same compound, the “changes in the size of enlarged subcarinal lymph nodes, computer tomography” value ([10]; oral 200 mg per day about 5 months, Jul. 1, 2009 vs Jan. 14, 2009) was “no meaningful changes”, the “changes in the size of primary lung tumor, computer tomography” value ([10]; person, oral 200 mg per day (100 mg twice a day) about 5 months, Jul. 1, 2009 vs Jan. 14, 2009) was “no substantive changes” and the “edema of right leg” value (metastatic melanoma) was “significantly decreased”. For the same compound, the “metastatic nodes in abdominal cavity, computer tomography and ultrasound” value (metastatic melanoma) was “complete regression”, the “overall physical condition (cough, shortness of breath)” value ([11]; 600 mg per day 1 month, then 900 mg per day 3 months) was “significant improvement” and the “tumor size, bronchoscopy” value ([11]; Oct. 21, 2009, 600 mg per day 1 month, then 900 mg per day August-October 2009) was “significant decrease”. The “right upper lobe bronchus previously obstructed by tumor, bronchoscopy” value ([11]; Oct. 21, 2009, 90% of bronchial lumen obstructed Jun. 14, 2009, 600 then 900 mg per day) was “complete opening”, the “decrease in the size of the lung tumor, X-ray examination” value ([11]; after one month oral 600 mg per day (300 mg twice a day)) was 2 fold and the weight loss ([3]; Case History 1, lung cancer, nine months oral treatment, 200 then 600 mg per day) was “no weight loss”. For the same compound, the “toxic effects of treatment” value ([3]; Case History 1, lung cancer, oral 200 mg per day, later 600 mg per day) was “no toxic effects”, the “toxic effects of zinc treatment” value [3, 13] was “no toxic effects” and the weight loss [3, 14] was “no weight loss”. For the same compound, the zinc toxic effects ([3]; Case History 3, lung cancer, oral 600 mg per day 1 month, 900 mg per day 3 months) was “no zinc toxic effects”, the weight loss ([3]; Case History 3, lung cancer, oral 600-900 mg per day) was “no weight loss” and the zinc toxicity ([3]; three cancer patients (Case Histories 1-3), 200 mg to 900 mg per day, daily for 4-9 months) was “no zinc toxicity”. The “Water Solubility” value [12] was “slightly soluble” and the “Water Solubility” value ([12]; listed as zinc picolinate) was “only slightly soluble”.
